Measured values: patent publication US11951094B2, “TLR2 modulator compounds, pharmaceutical compositions and uses thereof” (Axial Therapeutics, Inc., priority 2020, dated 2024)

What was measured:
TLR2 [1] = target: T1, TLR2 (Homo sapiens, UniProt O60603); test: TLR2 agonist screening assay, HEK-Blue TLR2 reporter cell line (NF-kB-driven SEAP, absorbance at 600 nm); assay type: cell-based; set-up: host or cells: HEK-293 (HEK-Blue TLR2 reporter cell line); conditions: HEK-Blue TLR2 reporter cells, agonist mode
In short: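 EC50 values come from 600 nm absorbance of SEAP-converted substrate after overnight agonist exposure. The reporter line was HEK-293 engineered with TLR2 and an NF-kB-SEAP construct, seeded at about 40,000 cells per well 16-24 h beforehand. Compounds were added at 1% final DMSO.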

TLR2 [2] = target: T1, TLR2; test: TLR2 antagonist screening assay, HEK Blue hTLR2 cells, competition with diprovocim; assay type: cell-based; set-up: host or cells: HEK Blue hTLR2 cells
From the text: TLRs signal through ligand-mediated dimerization or multimerization. TLR2 may partner with TLR1 or TLR6 to produce an agonist signal. Compounds that prevent agonist signaling, antagonists, may interfere with proper dimerization or with downstream signaling. The following assay was developed to identify and characterize novel TLR2 antagonists.
The in vitro TLR2 assay consists of a cell line that responds to TLR2 engagement by producing a factor that elicits a color change in the culture media and can be readily measured by various colorimetric detection methods. This assay enables the identification of existing and novel compounds that engage TLR2. Treating reporter cells with putative TLR2 antagonists will diminish the reporter response to TLR2 agonists.
TLR2 antagonists were screened for TLR2 binding and blocking with a competition assay. […] The assay was performed with Invivogen HEK Blue cells, which express the human TLR2 receptor as well as NFkB-inducible secreted Alkaline Phosphatase. Alkaline Phosphatase activity was proportional to TLR2 activation, and thus served as a colorimetric reporter.
HEK Blue hTLR2 cells (Invivogen) were grown in DMEM with 10% FBS (Seradigm). Cells were seeded at 40,000 cells/well in 96-well plates and incubated overnight to adhere. Media was replaced with 200 uL/well HEK Blue Detection Medium (Invivogen). […] Cells incubated for 16-24 hours, then absorbance at 600 nm was read on a SpectraMax M2 (Molecular Devices). […] Four parameter dose response curves were fit according to the following model, and IC50 values were reported: Y=Bottom+(Top-Bottom)/(1+(IC50/X)^HillSlope)
Where X is the antagonist concentration, Y is the normalized absorbance, Top and Bottom are the plateaus, IC50 is the concentration at half-maximal inhibition, and HillSlope is the slope factor.
• 1. HEK-Blue TLR2 cells are diluted in complete DME culture medium and plated into 96-well plates at 40,000 cells per well and cultured overnight. • 2. After 16-24 hours in culture, the media is removed and replaced with 200 microliters per well of HEK-Blue Detection media. • 3. TLR2 antagonists are diluted 100-fold from DMSO stocks into each well, yielding a final DMSO concentration of 1% in all wells. Reporter cells are treated for 1-2 hours, then treated with TLR2 agonist diluted to the EC50-70 concentration. • 4. Treated cells are cultured overnight and the following day are assayed in plate reader for Absorbance at 600 nanometer.

T1 sequence (O60603 21-784): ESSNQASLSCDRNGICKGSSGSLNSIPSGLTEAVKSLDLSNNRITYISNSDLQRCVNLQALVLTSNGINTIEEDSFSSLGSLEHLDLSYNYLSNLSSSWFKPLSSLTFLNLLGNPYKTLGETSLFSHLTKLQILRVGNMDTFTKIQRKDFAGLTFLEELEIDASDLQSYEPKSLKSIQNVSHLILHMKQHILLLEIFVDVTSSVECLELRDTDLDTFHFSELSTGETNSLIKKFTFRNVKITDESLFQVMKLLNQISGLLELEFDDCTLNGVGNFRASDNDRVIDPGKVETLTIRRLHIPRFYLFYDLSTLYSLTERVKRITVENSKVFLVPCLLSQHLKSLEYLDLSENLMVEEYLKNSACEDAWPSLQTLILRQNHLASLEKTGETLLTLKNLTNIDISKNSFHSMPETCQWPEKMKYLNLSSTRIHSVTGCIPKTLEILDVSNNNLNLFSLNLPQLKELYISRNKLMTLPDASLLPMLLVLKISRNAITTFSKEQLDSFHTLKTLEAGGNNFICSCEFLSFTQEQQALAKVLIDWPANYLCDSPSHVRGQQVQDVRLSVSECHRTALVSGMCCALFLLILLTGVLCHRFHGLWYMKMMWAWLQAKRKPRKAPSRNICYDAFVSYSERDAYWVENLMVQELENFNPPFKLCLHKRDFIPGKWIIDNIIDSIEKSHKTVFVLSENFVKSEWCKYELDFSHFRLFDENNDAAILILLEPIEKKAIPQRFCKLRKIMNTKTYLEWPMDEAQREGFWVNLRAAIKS

Structure (SMILES)	EC50 (TLR2 [1]; average of all runs (Table 3))	IC50 (TLR2 [2])	EC50 (TLR2 [1]; average of all runs (Table 4))
CCCCCCCCCCCCCCNC(=O)C1CN(C(=O)c2ccc(C(=O)N3C[C@@H](C(=O)N[C@H]4C[C@@H]4c4ccccc4)[C@H](C(=O)N[C@H]4C[C@@H]4c4ccccc4)C3)cc2)C1 [Compound 007]	> 1000 nM	351 to 1000 nM	–
CCCCCCCCCCCCCCC(=O)NC1CCN(C(=O)c2ccc(C(=O)N3C[C@@H](C(=O)N[C@H]4C[C@@H]4c4ccccc4)[C@H](C(=O)N[C@H]4C[C@@H]4c4ccccc4)C3)cc2)CC1 [Compound 008]	> 1000 nM	351 to 1000 nM	–
CCCCCCCC(=O)N1CCN(S(=O)(=O)c2ccc(C(=O)N3C[C@@H](C(=O)N[C@H]4C[C@@H]4c4ccccc4)[C@H](C(=O)N[C@H]4C[C@@H]4c4ccccc4)C3)cc2)CC1C(=O)NCCCCCC (some centres unmarked) [Compound 053]	> 1000 nM	351 to 1000 nM	–
O=C(N[C@H]1C[C@@H]1c1ccccc1)[C@@H]1CN(C(=O)C23CCC(C(=O)N4C[C@@H](C(=O)N[C@H]5C[C@@H]5c5ccccc5)[C@H](C(=O)N[C@H]5C[C@@H]5c5ccccc5)C4)(CC2)CC3)C[C@H]1C(=O)N[C@H]1C[C@@H]1c1ccccc1 [Compound 077, (3S,3'S,4S,4'S)-1,1′-(bicyclo [2.2.2]octane-1,4-dicarbonyl) bis (N3,N4-bis((1S,2R)-2-phenylcyclopropyl)pyrrolidine-3,4-dicarboxamide)]	–	351 to 1000 nM	> 1000 nM
